≈ marks a conversion by molar mass, not a printed value.
Legend:
[1] = target: T1, HIV-1 gp120 V3 hypervariable loop (Human immunodeficiency virus type 1 group M subtype B, UniProt P03375); assay: biochemical; assay type: binding; conditions: for Inhibitory activity: Table 1, reaction between HIV-1 gp120 and anti-V3 loop antibodies; for inhibition at 50 µg/mL: read-out: percentage of inhibition; for Inhibitory activity: key: Chemicals with inhibitory activity are indicated by +
T1 construct: Polystyrene plates coated with recombinant gp120 and gp160, respectively; purchased American Bio-Technologies, Inc., Cambridge, Mass; host or cells: baculovirus expression system
Experimental: Wells of 96 well polystyrene plates (Immulon 2, Dynatech Laboratories, Inc., Chantilly, Va.) were coated with synthetic peptides (200 μl; 20μg/ml in 0.1 M Tris-HCl, pH 8.8) overnight at 20° C. The peptides were from the sequence of HIV-1, clone BH 10 envelope glycoproteins gp120 and gp41 (Neurath, A. R., Strick, N., and Lee, E. Y. S. (1990), "B-cell Epitope Mapping of Human Immunodeficiency virus (HIV-1) Envelope Glycoprotein with Long (19 to 36-residue) Synthetic Peptides", J. Gen. Virol., 71., 85-95) and from V3 hypervariable loops of 21 distinct HIV-1 isolates (clones) Neurath, A. R., and Strick, N., (1990), "Confronting the Hypervariability of an Immunodominant Epitope Eliciting Virus Neutralizing Antibodies from the Envelope Glycoprotein of the Human Immunodeficiency Virus Type 1 (HIV-1)", Molec. Immunol., 27, 539-549. The latter peptides corresponded to full-length V3 loops generated by disulfide bonds between N- and C- terminal cysteine residues. After washing with 0.14 M NaCl, 0.01 M Tris, 0.02% NaN3 (TS), the wells were postcoated with a mixture of bovine serum albumin (BSA) and gelatine (10 and 2.5 mg/ml, respectively) in TS. BSA was omitted from the postcoating solution for RIA tests in which antibodies to ATA were used. Polystyrene plates coated with recombinant gp120 and gp160, respectively, (500 ng/well; from American Bio-Technologies, Inc., Cambridge, Mass. and MicroGeneSys, Inc., West Haven, Conn., respectively) were also used for RIA and ELISA tests.
To define sites on gp120/gp41 reacting with ATA, the inhibitory effect of this compound was studied by RIA tests using gp120- and gp160-coated wells, respectively, and antisera (final dilutions 1:150) against synthetic peptides from the entire sequence of gp120/gp41 of HIV-1 BH 10. The preparation and biological properties of these antisera were described elsewhere (Neurath et al., (1990), J. Gen. Virol., 71, 85-95). Each of the antisera was diluted in a mixture of fetal bovine serum and goat serum (9:1) containing 0.1% Tween 20, adjusted to pH 8. ATA (final concentration 50 μg/ml) was added in one set of assays, but was omitted from a parallel set. After incubation overnight at 25° C., the plates were washed with TS. Attached rabbit IgG was detected using ^125 I-labeled anti-rabbit IgG, as described before (Neurath et al., 1990, J. Gen. Virol., 71, 85-95). Similarly, the inhibitory effect of ATA on the reaction of peptides derived from gp120/gp41 and of peptides derived from V3 hypervariable loops from gp120 of distinct HIV-1 isolates with the respective homologous anti-peptide antisera was studied. In the latter case, antisera were diluted 1:1,000 for the assays.
The inhibitory effect of ATA and of other compounds on the reaction between antibodies with predetermined specificity and gp120 (or synthetic peptides derived from it) was determined from the formula: [formula] An analogous formula was used to calculate the percentage of inhibition from optical density readings resulting from ELISA tests.
Chemicals other than ATA were screened for inhibitory activity essentially as described above. […] Chemicals with inhibitory activity established by the respective immunoassays were screened further for antiviral activity.
Commercially available ATA is a mixture of monomers and polymers of distinct molecular masses (Gonzalez et al., (1979) Biochem. Biophys. Acta, 562, 534-545); Cushman et al., (1991), J. Chem., 34, 329-337). The monomers [molecular mass (M.W.)=422.4 daltons] were separated from the polymers. ATA (20 mg/ml in the form of free acid neutralized with 0.4 M NaOH) was dialyzed against H2 O in a dialysis membrane with a molecular mass cutoff of 500 daltons.

HIV-1 = assay: Antiviral activity: inhibition of P24 production in MT-2 cells; assay type: cell-based, HIV-1 IIIB; design: inhibition: dose or concentration left out as unconfirmed; conditions: Human immunodeficiency virus 1, MT2, Table 1; for EC50: read-out: EC50 (concentration at which the production of P24 was reduced to 50% of that detected in control cultures); for inhibition: read-out: percentage of inhibition of P24 nucleoprotein production
Experimental: All chemicals were tested at serial two-fold dilutions (1.25-80 μg/ml, prepared from a stock solution containing 10 mg/ml in dimethylsulfoxide). The chemicals were obtained from Aldrich, Milwaukee, Wis. or were synthesized. Their inhibitory activity was determined by two distinct methods, based on inhibition of synthesis of core protein P24 and on protection by the chemicals of cells against the cytopathic effect of HIV-1 (colorimetric method) respectively.
The chemicals were serially diluted in RPMI 1640 medium without phenol red (GIBCO, Grand Island, N.Y.) containing 10% fetal calf serum (FCS). Aliquots of the diluted solutions were added to wells of 96 well plates and mixed with an equal volume of diluted HIV-1 [multiplicity of infection (MOI) =0.0045]. After incubation for 1 hour at 37° C., 25 μl of polybrene (1 μg/ml) treated MT-2 cells (Harada, S., Koyanagi, Y., Yamamoto, N., (1985), "Infection of HTLV-III/LAV in HTLV-I-carrying Cells MT-2 and MT-4 and Application in a Plaque Assay", Science, 229, 563-566), (5,000 cells/well) were added. The mixture was incubated for 1 hour at 37° C. and the volume was adjusted with RPMI 1640 medium with 10% FCS to 200 μl. On the fourth day after incubation at 37° C., 100 μl of culture supernatants were collected from each well and equal volumes of fresh medium were added to the wells. The supernatants were assayed for P24 using a kit from Coulter Immunology (Hialeah, Fla.). On the sixth day, an indicator XTT tetrazolium dye (1 mg/ml; 50 μl/well; PolySciences, Inc., Warrington, Penna.) was added to the cells. After 4 hours, intracellular formazan was determined colorimetrically at 450 nm.
^c Chemicals with inhibitory activity in ELISA (RIA) tests were teste
^d EC50 = concentration at which the production of P24 was […]

`O=C(O)CC(c1ccccc1)(c1ccccc1)c1ccccc1` [compound 2] was tested, and the Inhibitory activity [1] was “+” and the inhibition at 50 µg/mL [1] was 27%.

With `c1ccc(CNc2ccccc2)cc1` [compound 42] the Inhibitory activity [1] was “+” and the inhibition at 50 µg/mL [1] was 28.8%.

In the case of `Nc1ccccc1-c1ccccc1` [compound 50], the Inhibitory activity [1] is reported as “+” and the inhibition at 50 µg/mL [1] is reported as 70.5%.

In the case of `Nc1ccc2c(c1)Cc1cc(Br)ccc1-2` [compound 63], the EC50 (HIV-1) is reported as 68 µg/mL (≈ 261 µM), the inhibition (HIV-1) is reported as 19% and the Inhibitory activity [1] is reported as “+”. The inhibition at 50 µg/mL [1] was 37.1%.

`Nc1ccc2c3c(cccc13)-c1ccccc1-2` [compound 65] was tested, and the EC50 (HIV-1) was 3 µg/mL (≈ 13.8 µM), the inhibition (HIV-1) was 100% and the Inhibitory activity [1] was “+”. For the same compound, the inhibition at 50 µg/mL [1] was 27.4%.

In the case of `c1cnc2c(c1)CCCCCCCCCC2` [compound 67], the EC50 (HIV-1) is reported as 37 µg/mL (≈ 170 µM), the inhibition (HIV-1) is reported as 53% and the Inhibitory activity [1] is reported as “+”. The inhibition at 50 µg/mL [1] was 36.8%.

With `O=Cc1ccc(-c2ccccc2)cc1` [compound 93] the EC50 (HIV-1) was over 80 µg/mL, the inhibition (HIV-1) was 32% and the Inhibitory activity [1] was “+”. It also gave an inhibition at 50 µg/mL [1] of 21%.

`O=C1OC(=O)C2C3c4ccccc4C(c4ccccc43)C12` (stereo not drawn) [compound 106] was tested, and the EC50 (HIV-1) was 18 µg/mL (≈ 65.1 µM), the inhibition (HIV-1) was 82% and the Inhibitory activity [1] was “+”. For the same compound, the inhibition at 50 µg/mL [1] was 77.5%.

`O=C(O)CNC(c1ccccc1)(c1ccccc1)c1ccccc1` [compound 108] was tested, and the Inhibitory activity [1] was “+” and the inhibition at 50 µg/mL [1] was 33.5%.

`CC(C)C[C@H](NC(=O)[C@H](C)NC(=O)[C@H](CC(C)C)NC(c1ccccc1)(c1ccccc1)c1ccccc1)C(=O)O` [compound 114] was tested, and the EC50 (HIV-1) was over 80 µg/mL, the inhibition (HIV-1) was 14% and the Inhibitory activity [1] was “+”. For the same compound, the inhibition at 50 µg/mL [1] was 62.1%.

For `O=C(O)C1=CC(=C(c2ccc(O)c(C(=O)O)c2)c2ccc(O)c(C(=O)O)c2)C=CC1=O` [compound 122], the EC50 (HIV-1) was 12 µg/mL (≈ 28.4 µM), the inhibition (HIV-1) was 83% and the Inhibitory activity [1] was “+”.

In the case of `O=c1cc2oc3cc(O)c(O)cc3c(-c3ccccc3)c-2cc1O` [compound 128], the EC50 (HIV-1) is reported as 27 µg/mL (≈ 84.3 µM), the inhibition (HIV-1) is reported as 85% and the Inhibitory activity [1] is reported as “+”. For the same compound, the inhibition at 50 µg/mL [1] was 58.6%.

`O=C(O)COc1cc2oc3cc(=O)c(OCC(=O)O)cc-3c(-c3ccccc3)c2cc1OCC(=O)O` [compound 129] was tested, and the EC50 (HIV-1) was 15 µg/mL (≈ 30.3 µM), the inhibition (HIV-1) was 88% and the Inhibitory activity [1] was “+”. The inhibition at 50 µg/mL [1] was 56.8%.

For `CC1=C(C(=O)O)C(=O)C(C(C)(C)C)=CC1=C(c1cc(C(C)(C)C)c(O)c(C(=O)O)c1C)c1cc(C(C)(C)C)c(O)c(C(=O)O)c1C` [compound 130], the EC50 (HIV-1) was 80 µg/mL (≈ 126 µM), the inhibition (HIV-1) was 38% and the Inhibitory activity [1] was “+”. For the same compound, the inhibition at 50 µg/mL [1] was 38.6%.

`O=C(O)C1=CC(I)=CC(=C(c2cc(I)cc(C(=O)O)c2O)c2cc(I)cc(C(=O)O)c2O)C1=O` [compound 131] was tested, and the EC50 (HIV-1) was 71 µg/mL (≈ 88.7 µM), the inhibition (HIV-1) was 41% and the Inhibitory activity [1] was “+”. For the same compound, the inhibition at 50 µg/mL [1] was 74.8%.

In the case of `CC(=O)C1=CC(=C(c2ccc(O)c(C(C)=O)c2)c2ccc(O)c(C(C)=O)c2)C=CC1=O` [compound 140], the Inhibitory activity [1] is reported as “+” and the inhibition at 50 µg/mL [1] is reported as 69.4%.

For `CC1=C(CCC(=O)O)c2cc3[nH]c(cc4nc(cc5[nH]c(cc1n2)c(C(O)CO)c5C)C(C(O)CO)=C4C)c(C)c3CCC(=O)O` (stereo not drawn) [compound 150], the EC50 (HIV-1) was 38.2 µg/mL (≈ 60.6 µM), the inhibition (HIV-1) was 99% and the Inhibitory activity [1] was “+”. It also gave an inhibition at 50 µg/mL [1] of 43.3%.

With `C=CC1=C(C)c2cc3[nH]c(cc4nc(cc5[nH]c(cc1n2)c(C)c5CO)C(C)=C4CCC(=O)O)c(CCC(=O)O)c3C` [compound 152] the EC50 (HIV-1) was 3 µg/mL (≈ 5.29 µM), the inhibition (HIV-1) was 100% and the Inhibitory activity [1] was “+”. The inhibition at 50 µg/mL [1] was 82.6%.

With `C=CC1=C(C)c2cc3[nH]c(cc4nc(cc5[nH]c(cc1n2)c(C)c5C=C)C(C)=C4CCC(=O)O)c(CCC(=O)O)c3C` [compound 158] the EC50 (HIV-1) was 1 µg/mL (≈ 1.78 µM), the inhibition (HIV-1) was 100% and the Inhibitory activity [1] was “+”. For the same compound, the inhibition at 50 µg/mL [1] was 55.8%.

`O=C(O)c1ccc(-c2c3nc(c(-c4ccc(C(=O)O)cc4)c4ccc([nH]4)c(-c4ccc(C(=O)O)cc4)c4nc(c(-c5ccc(C(=O)O)cc5)c5ccc2[nH]5)C=C4)C=C3)cc1` [compound 160] was tested, and the EC50 (HIV-1) was 1.3 µg/mL (≈ 1.64 µM), the inhibition (HIV-1) was 100% and the Inhibitory activity [1] was “+”. For the same compound, the inhibition at 50 µg/mL [1] was 84.3%.

For `C1=Cc2nc1c(-c1ccncc1)c1ccc([nH]1)c(-c1ccncc1)c1nc(c(-c3ccncc3)c3ccc([nH]3)c2-c2ccncc2)C=C1` [compound 161], the EC50 (HIV-1) was over 80 µg/mL, the inhibition (HIV-1) was 0% and the Inhibitory activity [1] was “+”. For the same compound, the inhibition at 50 µg/mL [1] was 66.4%.

In the case of `O=C(O)CCC1=C(CC(=O)O)c2cc3[nH]c(cc4nc(cc5[nH]c(cc1n2)c(CC(=O)O)c5CCC(=O)O)C(CC(=O)O)=C4CCC(=O)O)c(CC(=O)O)c3CCC(=O)O` [compound 163], the EC50 (HIV-1) is reported as 9.8 µg/mL (≈ 11.8 µM), the inhibition (HIV-1) is reported as 99% and the Inhibitory activity [1] is reported as “+”. It also gave an inhibition at 50 µg/mL [1] of 41.1%.

`O=C(O)CCC1=C(CC(=O)O)c2cc3[nH]c(cc4nc(cc5[nH]c(cc1n2)c(CCC(=O)O)c5CC(=O)O)C(CC(=O)O)=C4CCC(=O)O)c(CC(=O)O)c3CCC(=O)O` [compound 164] was tested, and the EC50 (HIV-1) was 2.3 µg/mL (≈ 2.77 µM), the inhibition (HIV-1) was 100% and the Inhibitory activity [1] was “+”. It also gave an inhibition at 50 µg/mL [1] of 45%.

From patent US5230998A, “Method for the prescreening of drugs targeted to the V3 hypervariable loop of the HIV-1 envelope glycoprotein gp 120” (priority 1991, dated 1993)
